From PMC5761078 (Cell reports, 2018) come the findings set out here.

For assay [1], the target named is D1 dopamine receptor (D1R) (Mus musculus, UniProt Q61616). As to conditions: agonist, cAMP increase; dMSN cell body; bath application.
A further assay concerns the target T1, A1R (Mus musculus, UniProt Q60612).
T1 sequence (Q60612 1-326): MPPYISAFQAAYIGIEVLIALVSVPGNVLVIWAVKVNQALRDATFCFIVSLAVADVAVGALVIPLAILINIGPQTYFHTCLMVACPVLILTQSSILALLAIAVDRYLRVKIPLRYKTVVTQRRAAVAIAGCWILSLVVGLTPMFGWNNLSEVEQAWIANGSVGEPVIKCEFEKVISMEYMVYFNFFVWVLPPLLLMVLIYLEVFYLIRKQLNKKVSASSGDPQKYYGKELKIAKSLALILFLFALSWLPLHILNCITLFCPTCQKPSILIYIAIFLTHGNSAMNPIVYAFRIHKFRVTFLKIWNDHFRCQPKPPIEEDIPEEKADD
The assay is described as follows: TEpacVV FRET imaging of cAMP in primary neurons. In kind it is cell-based. The note with it: agonist, cAMP decrease, bath application.

D1 dopamine receptor (D1R), sequence (Q61616 whole entry): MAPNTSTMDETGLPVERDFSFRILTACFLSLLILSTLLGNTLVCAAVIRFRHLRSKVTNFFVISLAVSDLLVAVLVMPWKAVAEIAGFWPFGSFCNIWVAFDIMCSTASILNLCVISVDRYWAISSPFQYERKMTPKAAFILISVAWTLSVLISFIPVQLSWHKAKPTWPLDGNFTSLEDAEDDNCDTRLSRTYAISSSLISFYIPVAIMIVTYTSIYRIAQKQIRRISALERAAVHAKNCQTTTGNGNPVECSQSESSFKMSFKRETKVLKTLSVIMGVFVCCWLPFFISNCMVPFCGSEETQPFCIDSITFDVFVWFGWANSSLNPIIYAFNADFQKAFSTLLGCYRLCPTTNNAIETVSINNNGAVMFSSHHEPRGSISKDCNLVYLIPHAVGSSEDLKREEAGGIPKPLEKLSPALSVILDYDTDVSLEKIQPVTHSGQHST

The compound `NCCc1ccc(O)c(O)c1` [dopamine] displayed an EC50 in assay [1] of 76.5 ± 13.9 nM.

On to `C[C@@]1(O)[C@H](O)[C@@H](CO)O[C@H]1n1cnc2c(NC3CCCC3)nc(Cl)nc21` [2′MeCCPA], for which the EC50 on A1R (dMSN) came to 14.6 ± 4.1 nM.

With `Nc1ncnc2c1ncn2[C@@H]1O[C@H](CO)[C@@H](O)[C@H]1O` [adenosine], on A1R (dMSN cell body), the EC50 was 112 ± 34 nM.

A word on the EC50: it is the concentration that produces a half-maximal response. A higher EC50 goes with weaker potency.
